The numbers were not newly measured in patent US8506359B2, “Aqueous dispersion for chemical mechanical polishing and chemical mechanical polishing method” (JSR Corporation, priority 2008, dated 2013), which cites them from elsewhere.

As usually defined, the pKa is the pH at which an ionisable group is half protonated.

Structures are written as SMILES.

The conditions of the data set: 25° C.; second carboxyl group for two carboxyl groups, third carboxyl group for three or more.
With `O=C(O)C1CCCC1C(=O)O` (stereo not drawn) [1,2-Cyclopentanedicarboxylic acid (cis), 1,2-Cyclopentanedicarboxylic acid], the pKa is 6.57.
`O=C(O)C1CCCCCC1C(=O)O` (stereo not drawn) [1,2-Cycloheptanedicarboxylic acid (trans)]: the pKa was 6.18.
`O=C(O)C1CCCC1C(=O)O` (stereo not drawn) [1,2-Cyclopentanedicarboxylic acid (trans)]: the pKa is 5.99.
Consider `O=C(O)C1CCCCCC1C(=O)O` (stereo not drawn) [1,2-Cycloheptanedicarboxylic acid (cis), 1,2-Cycloheptanedicarboxylic acid], for which the pKa was 7.60.
`O=C(O)C1CCCCCCC1C(=O)O` (stereo not drawn) [1,2-Cyclooctanedicarboxylic acid (trans), 1,2-Cyclooctanedicarboxylic acid]: the pKa was 6.24.
On to `O=C(O)C1CCCCCCC1C(=O)O` (stereo not drawn) [1,2-Cyclooctanedicarboxylic acid (cis), 1,2-Cyclooctanedicarboxylic acid], for which the pKa is listed as 7.34.
